# Data taken from patent US4585773A, “Isoindolinyl-alkyl-piperazines” (Bristol-Myers Company, priority 1984, dated 1986).
# Assays:
# [1] = diuretic properties compared to prazosin, acute (1-day) and chronic (5-day), conscious rats; format: in vivo, rat (female Sprague-Dawley); conditions: 3.0 mg/kg, by mouth
# Description: In this Example the compound of Example I as the hydrochloride salt containing 3/4 mol of HCl instead of 1 mol HCl, i.e. […] Studies were conducted with conscious, 150-200 g, female Sprague-Dawley rats (Charles River Labs, Wilmington, MA) using the protocol of Hanson et al., Mineral Elect. Metab., 8: 314-324 (1982). Animals were maintained in stainless steel gang cages in temperature-controlled rooms with a 12-hour light, 12-hour dark cycle and provided Purina Rodent Lab Chow, with water ad libitum. All animals were fasted 18 hours prior to acute (first-day) dosing and water was withheld during the experiment. […] Groups of ten animals (2/cage) were studied. A controlled (non-drug) group comprised of an equal number of animals was included. Test drugs were suspended in 0.25% methocel-saline (0.9% NaCl) and administered orally by stomach intubation at the doses mentioned above. The oral fluid load volume containing the respective drug dose was uniformly maintained at 25 ml/kg; controls received in methocel-saline vehicle only. Urine was collected over a 5-hour period from rats housed in metabolism cages (2 rats per cage); one specimen consisted of the pooled sample collected from each cage. The urine volume (ml) excreted by each pair of rats was measured and electrolyte (Na, K, Cl, Ca, P) concentrations were determined with an AAII Autoanalyzer (Technicon) employing established procedures. At the end of the acute (1-day) phase, each pair of rats was returned to a separate cage (2/cage) and provided both food and water. On the following three days, each animal received its respective drug methocel-saline load via a stomach intubation. On the fifth day (after an 18-hour fast) all rats were again treated and placed in metabolism cages (2 rats/cage) for a 5-hour urine collection (chronic-effect: 5-day).
# [2] = background statement; cited from earlier work
# [3] = system: Spontaneously Hypertensive rat; conditions: Suzuki et al.; cited from earlier work
# [4] = chronic administration (5-days)
Structure (SMILES),antihypertensive and diuretic activity (in words) [2],effects in the spontaneously hypertensive rat (in words) [3],also measured
"COc1ccccc1N1CCN(CCCN2Cc3cc(Cl)c(S(N)(=O)=O)cc3C2=O)CC1 [MJ15037-1A, 6-chloro-2,3-dihydro-2-[3-[4-(2-methoxyphenyl)-1-piperazinyl]propyl]-3-oxo-1H-isoindole-5-sulfonamide]",,,"natriuretic/diuretic activity (in words) ([1]; acute treatment (1-day)): no natriuretic/diuretic activity; chlorouresis, increase over control [1, 4]: 31%; natriuresis, increase over control [1, 4]: 32%"
"COc1cc2nc(N3CCN(C(=O)c4ccco4)CC3)nc(N)c2cc1OC [Prazosin, prazosin]",a very active antihypertensive agent has antidiuretic activity,,
NS(=O)(=O)c1cc2c(cc1Cl)CN(C1CCCCC1)C2=O [chlorexolone],diuretic and hypertensive activity,favorable effects,
NS(=O)(=O)c1cc2c(cc1C(F)(F)F)NCNS2(=O)=O [hydroflumethiazide],,favorable effects,
Nc1nc(N)c2nc(-c3ccccc3)c(N)nc2n1 [triamterene],,favorable effects,
